Measurements as given in patent US20250213560A1, “NITROGEN-CONTAINING HETEROCYCLIC COMPOUNDS HAVING PHENYL GROUP AND USES THEREOF” (BNH RESEARCH CO., LTD., priority 2022, published 2025).

Key:
[1] = test system: GluN2B; assay: GluN2B protein expression by Western blot in primary cortical neuron cells; assay type: cell-based, mouse; settings: for Western blot results Mean (GluN2B expression): relative value, vehicle set to 1, primary cortical neurons treated for 24 hours; for GluN2B expression effect (in words): compared to vehicle / other compounds, Table 5
Protocol: Meanwhile, primary cortical neuron cells were isolated from cerebral cortices of 18-day-old mouse fetuses, incubated in prep media (composition (mM): NaCl 107.5, NaH2PO4 1, NaHCO333.5, glucose 11, HEPS 1%, penicillin-streptomycin 1%) containing 0.25% trypsin and DNasel for 30 minutes, dissociated into single cells, and seeded. Primary cortical neuron cells were grown in Neurobasal medium supplemented with 1% (v/v) B27, 1% penicillin (100 U/mL), streptomycin ([…]), and 1% Glutamax. Cells were maintained in a humidified atmosphere of 95% air and 5% CO2 at 37° C. Drug efficacy was evaluated after culturing primary cortical neuron cells for 14 days.
The amount of GluN2B reacted with the compound of the present disclosure was measured using Western blot. The fetal cerebral cortex was extracted from mice at 17 days of gestation, dissociated into single cells, cultured for 13 days, and treated with BnH drugs for 24 hours. The drug-treated cells were subjected to protein lysate preparation using RIPA protein lysis buffer containing protease and phosphatase inhibitors. The protein concentration was determined using a BCA protein assay kit (Pierce Biotechnology) using bovine serum albumin as a standard. Equal amounts of protein (20 μg per lane) were separated by electrophoresis on SDS-polyacrylamide gels at 90 V for 2 hours, then transferred from the SDS-polyacrylamide gel to PVDF membrane at 100 V for 1 hour. Then, primary reaction with GluN2B antibody (ab65783, Abcam) was performed at 4° C. for 1 day, washed three times at 10-minutes intervals with 1×PBT, and secondary reaction was performed with anti-mouse antibody (sc-2357, Santa Cruz) for 1 hour, followed by washing three times at 10-minutes intervals with 1×PBT. Western blotting was performed as described above to confirm GluN2B protein expression. Subsequently, each blot was re-probed using anti-β-actin antibody (sc-47778, Santa Cruz). Housekeeping protein B-actin was detected as a normalization control.
The increase and decrease of BnH12 series were confirmed by setting the vehicle to 1 (N for each group was 3 or more).
Using the experimental procedure described in Example 3, it was determined whether various BnH12 series compounds increase GluN2B expression, and the results are shown in Table 5. These in vitro experimental results are expressed as relative values to the group (vehicle) that was not treated with the compound, with the effect of the group set to 1.

[2] = test system: 293T cells; assay: Cytotoxicity test (CCK-8 cell viability) in 293T cells; assay type: cell-based, human; settings: 293T cell line
Protocol: Human undifferentiated neuroblastoma cell line SH-SY5Y and human embryonic kidney cell line (HEK)-293T were purchased from Korean Cell Line Bank (Korea) and Takara (Japan), respectively. Cells were grown in HyClone Minimal Essential Medium (MEM) and Dulbecco's Modified Eagle Medium (DMEM), respectively, supplemented with 10% (v/v) fetal bovine serum (FBS), penicillin (100 U/mL), and streptomycin ([…]). Cells were maintained in a humidified atmosphere of 95% air and 5% CO2 at 37° C. Cells were passaged 10 times at maximum. Cells were dissociated using 0.05% trypsin-EDTA solution and the cells were seeded in new culture dishes for maintenance.
To examine the cytotoxicity of compounds described herein in human cell lines, SH-SY5Y and 293T cells were used. Approximately 8,000 cells (for 293T) and 15,000 cells (for SH-SY5Y) were plated per well of a 96-well plate (SPL Life Sciences Co., Ltd., Pocheon, Korea). After incubating at 37° C. for 24 hours in a humidified atmosphere containing 5% CO2, the culture medium was replaced by a series of concentrations of test compounds diluted in the corresponding culture medium.
The time of co-incubation was 24 hours and six replicates were made for each measurement. Finally, 10 μL of CCK-8 reagent (Dojindo Laboratories, Rockville, MD) was added to each well, and after incubation at 37° C. for 3 minutes, the OD at 450 nm was measured using a multifunction microplate reader (Tecan Infinite M200 Pro). These measurements were compared to that of a control and expressed as a percentage of the control to calculate cell viability. The IC50 value was calculated using SPSS software. To do this, the absorbance of the blank wells with only growth medium is subtracted from the values or the wells with cells. The readout value of background (vehicle) was set as a 100% viability, and then the percent viability for each test solution was calculated.
The data was presented as the mean value and standard error of the mean (S.E.M.). Statistical analysis was performed with the one-way ANOVA with Tukey's post hoc test (GraphPad Prism 5 software package, version 5.02, GraphPad Software Inc. USA). Significance was accepted at p<0.05.
The cytotoxicity of the compound was evaluated by treating cells with BnH12003 and measuring cell viability.
By treating cells with various BnH12 series compounds and measuring cell viability using the experimental procedure described in Example 2, the cytotoxicity of the compounds was evaluated.

| Structure (SMILES) | Western blot results Mean (GluN2B expression) [1] | Cell viability test results (CCK) 10 uM [2] [%<] | Cell viability test results (CCK) 100 uM [2] [%<] | GluN2B expression effect (in words) [1] |
| --- | --- | --- | --- | --- |
| O=C(NO)[C@@H]1CCCN1C(=O)Cc1ccc(-c2cncnc2)cc1 [BnH12017, (S)-N-hydroxy-1-(2-(4-(pyrimidin-5-yl)phenyl)acetyl)pyrrolidine-2-carboxamide] | 1.448 | 95 | 80 | – |
| C[C@H]1CC[C@@H](C(=O)O)CN1C(=O)Cc1ccc(-c2ccnnc2)cc1 [BnH12045, (3R,6S)-6-methyl-1-(2-(4-(pyridazin-4-yl)phenyl)acetyl) piperidine-3-carboxylic acid] | 1.341 | 99 | 99 | – |
| C[C@H]1CC[C@@H](C(=O)O)CN1C(=O)Cc1ccc(-c2cccnc2)cc1 [BnH12046, (3R,6S)-6-methyl-1-(2-(4-(pyridin-3-yl)phenyl)acetyl) piperidine-3-carboxylic acid] | 2.102 | 95 | 90 | excellent effects |
| C[C@H]1CC[C@@H](C(=O)O)CN1C(=O)Cc1ccc(-c2cnccn2)cc1 [BnH12047, (3R,6S)-6-methyl-1-(2-(4-(pyrazin-2-yl)phenyl)acetyl) piperidine-3-carboxylic acid] | 1.554 | 99 | 99 | – |
| C[C@H]1CC[C@@H](C(=O)O)CN1C(=O)Cc1ccc(-c2ncccn2)cc1 [BnH12048, (3R,6S)-6-methyl-1-(2-(4-(pyrimidin-2-yl)phenyl)acetyl) piperidine-3-carboxylic acid] | 1.071 | 95 | 80 | – |
| C[C@H]1CC[C@@H](C(=O)O)CN1C(=O)Cc1ccc(-c2nccn2C)cc1 [BnH12053, sodium (3R,6S)-6-methyl-1-(2-(4-(1-methyl-1H-imidazol-2-yl)phenyl)acetyl) piperidine-3-carboxylate] | 1.652 | 95 | 95 | – |
| C[C@H]1CC[C@@H](C(=O)O)CN1C(=O)Cc1ccc(-c2cnco2)cc1 [BnH12057, (3R,6S)-6-methyl-1-(2-(4-(oxazol-5-yl)phenyl)acetyl) piperidine-3-carboxylic acid] | 2.241 | 95 | 55 | excellent effects |
| C[C@H]1CC[C@@H](C(N)=O)CN1C(=O)Cc1ccc(-c2ncccn2)cc1 [BnH12058, (3R,6S)-6-methyl-1-(2-(4-(pyrimidin-2-yl)phenyl)acetyl) piperidine-3-carboxamide] | 1.54 | 99 | 90 | – |
| C[C@@H]1CC[C@H](C(=O)O)CN1C(=O)Cc1ccc(-c2cccnc2)cc1 [BnH12066, (3S,6R)-6-methyl-1-(2-(4-(pyridin-3-yl)phenyl)acetyl) piperidine-3-carboxylic acid] | 1.514 | 99 | 90 | – |
| C[C@@H]1CC[C@H](C(=O)O)CN1C(=O)Cc1ccc(-c2cnccn2)cc1 [BnH12067, (3S,6R)-6-methyl-1-(2-(4-(pyrazin-2-yl)phenyl)acetyl) piperidine-3-carboxylic acid] | 2.565 | 99 | 85 | excellent effects |
